Data from US20210267872A1, “Delivery Of Cosmetic Agents, Compositions And Use Thereof” (ELC Management LLC, priority 2020, published 2021).

Columns and labels:
MatTek 300 skin = assay: Skin penetration study (Franz Cell) using MatTek skin; assay type: in vitro ADME; conditions: for enhancement of penetration of AA2G over control: p value greater than 0.05
Description: In a 6-well plate, MatTek 300 skin (a skin modeling constructed by live cells, obtained from MatTek) was placed in well with 2.00 mL of incubation medium (also provide by MatTek). To the top of the skin, 400 ul of the sample was loaded. The skin was then incubated at 37° C. At 3 hours and 6 hours, the incubation medium was collected, and another 2.00 mL of medium was added into the well. The skin was then incubated until 24 hours. Finally, the medium was collected at 24 hours' time point. The collected mediums were filtered through a 0.45 um PTFE syringe filter into HPLC vials. The samples were then submitted to the UPLC study.
Waters ACQUITY H UPLC was used to analyze the collected samples from the penetration study (Franz Cell study).

Skin PAMPA study = assay type: in vitro ADME
Description: In vitro delivery of active ingredients in a formulation was evaluated using a skin PAMPA study. Active ingredients and pulverized thin fibers were added to the formulation and tested for permeation using PAMPA SC membrane for polar compounds. The following samples were prepared. Formulations are provided in Table 3 in percentages. • Formula 1 as shown in Table 3. • Formula 2: Formula 1 and 1% of microcrystalline cellulose (9 μm). • Formula 3: Formula 1 and the maximum amount of 1% dispersion (cellulose acetate fibers in water). • Formula 4: Formula 1 and 1% of microcrystalline cellulose (9 μm) and the maximum amount of 1% dispersion (cellulose acetate fibers in water).

SMILES | enhancement of penetration of AA2G over control (MatTek 300 skin; six hours, formula containing cellulose acetate chopped fibers vs control without fiber) [%] | enhancement of penetration of AA2G over control (MatTek 300 skin; three hours, formula containing cellulose acetate chopped fibers vs control without fiber) [%] | enhancement of penetration of AA2G over control (difference) (MatTek 300 skin; twenty-four hours, formula containing cellulose acetate chopped fibers vs control without fiber) | delivery/penetration of AA2G into the skin in the presence of cellulose acetate chopped fibers (MatTek 300 skin; vs formulation without fiber, initial 6 hours after loading) | permeated amount of AA2G, FIG. 2B (Skin PAMPA study; span over all formulas shown) [μg/cm2] | percentage % penetration of caffeine compared with AA2G (MatTek 300 skin) | penetration of caffeine in the presence of cellulose acetate chopped fibers (summary) (MatTek 300 skin; PAMPA) | enhancement of penetration of caffeine by addition of chopped fiber (MatTek 300 skin; human, 6 h) [%] | permeation of caffeine in the presence of chopped fibers compared to the control, FIG. 4B (Skin PAMPA study; composition comprising chopped fibers) | permeating amount of caffeine, FIG. 4A (Skin PAMPA study; six hours, cellulose acetate nanofiber)
O=C1O[C@H]([C@@H](O)CO)C(O)=C1O[C@H]1O[C@H](CO)[C@@H](O)[C@H](O)[C@H]1O [AA2G, ascorbic acid 2-glucoside] | 30 | 33 | less than 10% | enhanced | 0 to 300 | – | – | – | – | –
Cn1c(=O)c2c(ncn2C)n(C)c1=O [caffeine] | – | – | – | – | – | greater than that of AA2G | slightly enhanced | < 10 | doubling | slightly increased
